Structures can show the parent of a compound that is named as a salt.
molecular target: human Factor Xa (Homo sapiens, UniProt P00742); test: In vitro assay for inhibition of Factor Xa (2), fluorogenic assay; type: biochemical; settings: substrate Rhodamine 110, bis-(CBZ-glycylglycyl-L-arginine amide 10 μM), Ki calculated from IC50
Method: In Vitro Assay for Inhibition of Factor Xa (2)
All other compounds of the present invention were tested for their Factor Xa inhibitory activity as determined in vitro by their ability to inhibit human Factor Xa in a fluorogenic assay, using Rhodamine 110, bis-(CBZ-glycylglycyl-L-arginine amide as the fluorogenic substrate. Compounds were diluted from a 10 mM stock solution in dimethylsulfoxide at appropriate concentrations. Assay was performed at room temperature using buffer consisting of: 50 mM Tris-HCl, 150 mM NaCl, 5 mM CaCl2, pH 7.4. containing human Factor Xa (final conc. Of 0.0003U.ml−1). Compound and enzyme were preincubated for 15 min prior to addition of the substrate (final conc. of 10 μM). The reaction was stopped after 3 hrs with the addition of H-D-PHE-PRO-ARG-Chloromethylketone. […] To obtain IC50 values the data were analysed using ActivityBase® and XLfit®.
Calculation of Ki values:
Ki=IC50/(1+[Substrate]/Km)
The Ki value for the above assay can be obtained by dividing the IC50 value by 1.6.

Sequence of human Factor Xa (P00742 235-488 limits assumed): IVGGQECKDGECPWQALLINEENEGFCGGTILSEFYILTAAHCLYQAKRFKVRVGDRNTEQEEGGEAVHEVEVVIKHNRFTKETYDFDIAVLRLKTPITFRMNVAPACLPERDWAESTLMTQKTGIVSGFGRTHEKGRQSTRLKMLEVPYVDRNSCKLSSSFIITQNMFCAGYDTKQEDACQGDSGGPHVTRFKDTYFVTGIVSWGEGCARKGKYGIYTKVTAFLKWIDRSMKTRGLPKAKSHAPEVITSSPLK
Sequence of human Factor Xa (P00742 41-179 partner limits assumed): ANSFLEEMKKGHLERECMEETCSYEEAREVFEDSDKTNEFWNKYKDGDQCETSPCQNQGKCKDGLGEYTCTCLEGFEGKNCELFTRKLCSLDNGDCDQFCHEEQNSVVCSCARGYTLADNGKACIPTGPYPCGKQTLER

Structure (SMILES)	Ki [nM]
O=C1[C@@H](NS(=O)(=O)c2ccc3cc(Cl)ccc3c2)CCN1c1ccc(-c2ncccn2)cc1F [Example 81, 6-Chloro-N-[(3S)-1-(2-fluoro-4-pyrimidin-2-ylphenyl)-2-oxopyrrolidin-3-yl]naphthalene-2-sulfonamide]	< 1000
Cn1cnc(-c2ccc(N3CC[C@H](NS(=O)(=O)c4ccc5cc(Cl)ccc5c4)C3=O)c(F)c2)c1 [Example 84, 6Chloro-N-{(3S)-1-[2-fluoro-4-(1-methyl-1H-imidazol-4-yl)phenyl]-2-oxopyrrolidin-3-yl}naphthalene-2-sulfonamide Formate]	< 20
CS(=O)(=O)c1ccccc1-c1ccc(N2CC[C@H](NS(=O)(=O)c3cnc(-c4ccc(Cl)s4)s3)C2=O)c(F)c1 [Example 86, 2-(5-Chlorothien-2-yl)-N-{(3S)-1-[3-fluoro-2′-(methylsulfonyl)-1,1′-biphenyl-4-yl]-2-oxopyrrolidin-3-yl}-1,3-thiazole-5-sulfonamide]	< 20
CS(=O)(=O)c1ccccc1-c1ccc(N2CC[C@H](NS(=O)(=O)c3cc4sc(Cl)cc4s3)C2=O)c(F)c1 [Example 87, 5-Chloro-N-{(3S)-1-[3-fluoro-2′-(methylsulfonyl)-1,1′-biphenyl-4-yl]-2-oxopyrrolidin-3-yl}thieno[3.2-b]thiophene-2-sulfonamide]	< 10
CS(=O)(=O)c1ccccc1-c1ccc(N2CC[C@H](NS(=O)(=O)c3c(Cl)sc4ccsc34)C2=O)c(F)c1 [Example 88, 2-Chloro-N-{(3S)-1-[3-fluoro-2′-(methylsulfonyl)-1,1′-biphenyl-4-yl]-2-oxopyrrolidin-3-yl}thieno[3.2-b]thiophene-3-sulfonamide]	< 20
O=C1[C@@H](NS(=O)(=O)c2ccc(-c3ccc(Cl)s3)s2)CCN1c1ccc(I)cc1F [Example 92, 5′-Chloro-N-[(3S)-1-(2-fluoro-4-iodophenyl)-2-oxopyrrolidin-3-yl]-2,2′-bithiophene-5-sulfonamide]	< 10
O=C1[C@H](NS(=O)(=O)c2cc3ccc(Cl)cc3s2)CCN1c1ccc([N+](=O)[O-])cc1F [Example 94, 6-Chloro-N-[(3R)-1-(2-fluoro-4-nitrophenyl)-2-oxopyrrolidinyl]-1-benzothiophene-2-sulfonamide]	< 200
O=C1[C@@H](NS(=O)(=O)/C=C/c2ccc(Cl)s2)CCN1c1ccc([N+](=O)[O-])cc1F [Example 95, (E)-2-(5-Chloro-2-thienyl)-N-[(3S)-1-(2-fluoro-4-nitrophenyl)-2-oxopyrrolidinyl]ethenesulfonamide]	< 20

Continued, values first:

Ki [nM]	Structure (SMILES)
< 10	Cn1ccnc1-c1ccc(N2CC[C@H](NS(=O)(=O)c3ccc4cc(Cl)ccc4c3)C2=O)c(F)c1 [Example 77, 6-Chloro-N-{(3S)-1-[2-fluoro-4-(1-methyl-1H-imidazol-2-yl)phenyl]-2-oxopyrrolidin-3-yl}naphthalene-2-sulfonamide]
< 10	O=C1[C@@H](NS(=O)(=O)c2ccc3cc(Cl)ccc3c2)CCN1c1ccc(-c2cccnc2Cl)cc1F [Example 78, 6-Chloro-N-{(3S)-1-[4-(2-chloropyridin-3-yl)-2-fluorophenyl]-2-oxopyrrolidin-3-yl}naphthalene-2-sulfonamide]
< 10	N#Cc1ncccc1-c1ccc(N2CC[C@H](NS(=O)(=O)c3ccc4cc(Cl)ccc4c3)C2=O)c(F)c1 [Example 79, 6-Chloro-N-{(3S)-1-[4-(2-cyanopyridin-3-yl)-2-fluorophenyl-]-2-oxopyrrolidin-3-yl}naphthalene-2-sulfonamide]
< 10	O=C1[C@@H](NS(=O)(=O)/C=C/c2ccc(Cl)s2)CCN1c1ccc(-c2ccncc2Cl)cc1F [Example 80, (E)-N-{(3S)-1-[4-(3-Chloropyridin-4-yl)-2-fluorophenyl]-2-oxopyrrolidin-3-yl}-2-(5-chlorothien-2-yl)ethenesulfonamide]
< 10	O=C1[C@@H](NS(=O)(=O)c2ccc3cc(Cl)ccc3c2)CCN1c1ccc(-c2ncccc2Cl)cc1F [Example 82, 6-Chloro-N-{(3S)-1-[4-(3-chloropyridin-2-yl)-2-fluorophenyl]-2-oxopyrrolidin-3-yl}naphthalene-2-sulfonamide]
